From patent US8674136B2, “Aromatic butan-2-ol compounds and preparation and uses thereof” (Institute of Pharmacology and Toxicology Academy of …, priority 2010, dated 2014)
Values after ≈ are worked out from the molar mass of the structure shown.

Legend:
[1] = tested on: clinical drug-resistant strain 040 of mycobacterium tuberculosis; experiment: microbe, parasite or virus in culture; assay type: cell-based; settings: read-out: MIC, M.tb stains (drug-resistant strains) 40
[2] = tested on: clinical drug-resistant strain 004 of mycobacterium tuberculosis; experiment: microbe, parasite or virus in culture; assay type: cell-based; settings: read-out: MIC, M.tb stains (drug-resistant strains) 004

Compound | MIC [1] [µg/mL] | MIC [2] [µg/mL]
COc1cc2ccc(Br)cc2cc1C(c1cccc(Cl)c1)C(O)(CCN(C)C)c1cccc2ccccc12 (stereo not shown) [Compound 35, 1-(3-chlorophenyl)-2-(1-naphthyl)-1-[2-(7-bromo-3-methoxy)naphthyl]-4-(N,N-dimethylamino)-butan-2-ol] | 0.125 (≈ 0.212 µM) | 0.5 (≈ 0.849 µM)
COc1cc2ccc(Br)cc2cc1C(c1cccc(C)c1)C(O)(CCN(C)C)c1cccc2ccccc12 (stereo not shown) [Compound 37, 1-(3-methylphenyl)-2-(1-naphthyl)-1-[2-(7-bromo-3-methoxy)naphthyl]-4-(N,N-dimethylamino)-butan-2-ol] | 0.125 (≈ 0.22 µM) | 0.5 (≈ 0.879 µM)
